Measured values reported in ChEMBL document CHEMBL3045383, “Synthesis, characterization, anticancer activity, and QSAR-studies of some new tetrahydropyrimidines” (2011).

Tests used:
Type in all cases: functional
[1] = system: SK-MEL-5; assay: Cytotoxicity against Homo sapiens (human) SK-MEL-5 cells after 48 hr by SRB assay; settings: SK-MEL-5, 48 h
[2] = system: HL-60(TB); assay: Cytotoxicity against Homo sapiens (human) HL-60(TB) cells after 48 hr by SRB assay; settings: HL-60, 48 h
[3] = system: SF-268; assay: Cytotoxicity against Homo sapiens (human) SF268 cells after 48 hr by SRB assay; settings: SF-268, 48 h
[4] = system: CAKI-1; assay: Cytotoxicity against Homo sapiens (human) CAKI-1 cells after 48 hr by SRB assay; settings: CAKI-1, 48 h
[5] = system: NCI/ADR-RES; assay: Cytotoxicity against Homo sapiens (human) NCI/ADR-RES cells after 48 hr by SRB assay
[6] = system: COLO 205; assay: Cytotoxicity against Homo sapiens (human) COLO205 cells after 48 hr by SRB assay; settings: COLO 205, 48 h
[7] = system: HOP-92; assay: Cytotoxicity against Homo sapiens (human) HOP92 cells after 48 hr by SRB assay; settings: HOP-92, 48 h
[8] = system: PC-3; assay: Cytotoxicity against Homo sapiens (human) PC3 cells after 48 hr by SRB assay; settings: PC-3, 48 h
[9] = system: IGROV-1; assay: Cytotoxicity against Homo sapiens (human) IGROV1 cells after 48 hr by SRB assay; settings: IGROV-1, 48 h

SMILES	GI50 [1]	GI50 [2]	GI50 [3]	GI50 [4]	GI50 [5]	GI50 [6]	GI50 [7]	GI50 [8]	GI50 [9]
CC1=C(C(=O)Nc2ccc(Cl)c(Cl)c2)C(c2ccccc2Cl)NC(=S)N1 (stereo not drawn)	10 µM	15.5 µM	8.91 µM	17.8 µM	15.8 µM	7.94 µM	1.2 µM	20 µM	15.8 µM
CC1=C(C(=O)Nc2ccc(Cl)c(Cl)c2)C(c2cccc(Cl)c2)NC(=O)N1 (stereo not drawn)	9.55 µM	13.5 µM	11.2 µM	12.6 µM	16.6 µM	7.94 µM	45.7 µM	50.1 µM	10.5 µM
CC1=C(C(=O)Nc2ccc(F)c(Cl)c2)C(c2ccccc2Cl)NC(=S)N1 (stereo not drawn)	12.3 µM	25.7 µM	14.8 µM	31.6 µM	16.6 µM	24 µM	50.1 µM	20.4 µM	17.8 µM
CC1=C(C(=O)Nc2ccc(F)c(Cl)c2)C(c2cccc(Cl)c2)NC(=S)N1 (stereo not drawn)	8.32 µM	16.2 µM	10 µM	39.8 µM	15.8 µM	4.17 µM	32.4 µM	25.1 µM	14.1 µM
CC1=C(C(=O)Nc2ccc(F)c(Cl)c2)C(c2cccc(Oc3ccccc3)c2)NC(=S)N1 (stereo not drawn)	8.91 µM	17.4 µM	8.91 µM	12.6 µM	15.5 µM	17.8 µM	20.9 µM	12 µM	10.7 µM
COc1cccc(C2NC(=S)NC(C)=C2C(=O)Nc2ccc(F)c(Cl)c2)c1 (stereo not drawn)	13.2 µM	17.4 µM	18.2 µM	49 µM	15.5 µM	26.9 µM	50.1 µM	23.4 µM	27.5 µM
CC1=C(C(=O)Nc2ccc(F)c(Cl)c2)C(c2cccc(O)c2)NC(=S)N1 (stereo not drawn)	11.2 µM	25.7 µM	17.8 µM	50.1 µM	17 µM	22.4 µM	50.1 µM	25.1 µM	22.9 µM
CC1=C(C(=O)Nc2ccc(F)c(Cl)c2)C(c2cccc(Oc3ccccc3)c2)NC(=O)N1 (stereo not drawn)	7.59 µM	13.8 µM	8.51 µM	10 µM	16.2 µM	6.31 µM	40.7 µM	22.4 µM	7.94 µM
CC1=C(C(=O)Nc2ccc(Cl)c(Cl)c2)C(c2cccc(Oc3ccccc3)c2)NC(=S)N1 (stereo not drawn)	7.94 µM	83.2 µM	6.17 µM	8.51 µM	15.5 µM	9.33 µM	13.2 µM	9.77 µM	7.76 µM
COc1cccc(C2NC(=S)NC(C)=C2C(=O)Nc2ccc(Cl)c(Cl)c2)c1 (stereo not drawn)	9.55 µM	49 µM	12.6 µM	17.8 µM	16.6 µM	9.33 µM	12.6 µM	14.5 µM	15.8 µM
CC1=C(C(=O)Nc2ccc(Cl)c(Cl)c2)C(c2cccc(O)c2)NC(=S)N1 (stereo not drawn)	10 µM	11.2 µM	15.8 µM	22.4 µM	15.8 µM	7.08 µM	13.5 µM	14.1 µM	19.1 µM
CC1=C(C(=O)Nc2ccc(Cl)c(Cl)c2)C(c2ccccc2O)NC(=O)N1 (stereo not drawn)	12.6 µM	50.1 µM	28.2 µM	39.8 µM	17.8 µM	28.2 µM	50.1 µM	33.9 µM	25.1 µM
